Data: patent publication US6455540B1, “Methods of use of quinolone compounds against anaerobic pathogenic bacteria” (priority 1999, dated 2002)
≈ marks a conversion by molar mass, not a printed value.

Legend:
Assay in all cases: Agar dilution MIC
[1] = test system: Actinomyces odontolyticus; format: cell-based; settings: Schaalia odontolytica, 10 isolates
Actinomyces israelii = format: cell-based; settings: Actinomyces israelii, read-out: Minimal Inhibitory Concentration 50% (MIC50); 6 isolates
[2] = test system: Anaerobiospirillum thomasii; format: cell-based; settings: 13 isolates
[3] = test system: Anaerobiospirillum succiniciproducens; format: cell-based; settings: 3 isolates
Bacteroides gracilis = format: cell-based, Bacteroides gracilis (Campylobacter gracilis); settings: 11 isolates
Bacteroides tectum = format: cell-based; settings: 22 isolates
Bacteroides ureolyticus = format: cell-based; settings: 17 isolates
Bilophila wadsworthia = format: cell-based; settings: 16 isolates, agar supplemented with pyruvate
[4] = test system: Clostridium clostridioforme; format: cell-based; settings: Clostridium, 11 isolates
Clostridium dfficile = format: cell-based, Clostridium difficile; settings: Clostridium
Clostridium inocuum = format: cell-based, Clostridium innocuum; settings: Clostridium, 11 isolates
Clostridium ramosum = format: cell-based; settings: Thomasclavelia ramosa, 10 isolates
[5] = test system: Fusobacterium spp group 1; format: cell-based; settings: Fusobacterium, 19 isolates
[6] = test system: Fusobacterium spp. group 2; format: cell-based, Fusobacterium mortiferum, necrogenes, ulcerans; settings: Fusobacterium, 12 isolates
Fusobacterium russii = format: cell-based; settings: Fusobacterium russii
Fusobacterium varium = format: cell-based; settings: Fusobacterium varium, 17 isolates
[7] = test system: Peptostreptococcus asaccharolyticus; format: cell-based; settings: Peptoniphilus asaccharolyticus, 11 isolates
[8] = test system: Peptostreptococcus magnus; format: cell-based; settings: Finegoldia magna, 13 isolates
[9] = test system: Peptostreptococcus micros; format: cell-based; settings: 12 isolates
[10] = test system: Peptostreptococcus prevotii; format: cell-based; settings: Anaerococcus prevotii, read-out: Minimal Inhibitory Concentration 50% (MIC50); 9 isolates
[11] = test system: Porphyromonas asaccharolyticus; format: cell-based, Porphyromonas asaccharolytica; settings: Porphyromonas, 11 isolates
Porphyromonas canoris = format: cell-based; settings: 10 isolates
Porphyromonas gingivalis = format: cell-based; settings: 13 isolates
Porphyromonas macaccae = format: cell-based; settings: 13 isolates
Porphyromonas spp. = format: cell-based, Porphyromonas cangingivalis, cansulci, circumdentaria, levii; settings: 11 isolates
Prevotella bivia = format: cell-based; settings: Prevotella bivia, 21 isolates
[12] = test system: Prevotella buccae-oris group; format: cell-based; settings: 22 isolates
[13] = test system: Prevotella heparinolytica; format: cell-based; settings: 16 isolates
Prevotella intermedia = format: cell-based; settings: Prevotella intermedia, 11 isolates
[14] = test system: Prevotella melaninogenica; format: cell-based; settings: 12 isolates
[15] = test system: Prevotella denticola/loeschii group; format: cell-based; settings: 6 isolates
Veillonella spp. = format: cell-based; settings: Veillonella, 24 isolates
[16] = read-out: Minimal Inhibitory Concentration 90% (MIC90)
[17] = read-out: Minimal Inhibitory Concentration 50% (MIC50)
[18] = Porphyromonas, read-out: Minimal Inhibitory Concentration 50% (MIC50)
[19] = Porphyromonas, read-out: Minimal Inhibitory Concentration 90% (MIC90)

**Q.** What does the source list for `CC[C@H]1OC(=O)[C@H](C)[C@@H](O[C@H]2C[C@@](C)(OC)[C@@H](O)[C@H](C)O2)[C@H](C)[C@@H](O[C@@H]2O[C@H](C)C[C@H](N(C)C)[C@H]2O)[C@](C)(OC)C[C@@H](C)C(=O)[C@H](C)[C@@H](O)[C@]1(C)O` [Clarithromycin]?
**A.** MIC90 [1, 16]: ≤ 0.015 µg/mL; MIC50 [1, 17]: ≤ 0.015 µg/mL; MIC50 (Actinomyces israelii): ≤ 0.015 µg/mL; Minimal Inhibitory Concentration Range [2]: 2 to 32 µg/mL; MIC50 ([2]; Anaerobiospirillum thomasii, read-out: Minimal Inhibitory Concentration 50% (MIC50)): 4 µg/mL (≈ 5.35 µM); MIC90 ([2]; Anaerobiospirillum thomasii, read-out: Minimal Inhibitory Concentration 90% (MIC90)): 16 µg/mL (≈ 21.4 µM); Minimal Inhibitory Concentration Range [3]: 8 to 32 µg/mL; MIC50 ([3]; Anaerobiospirillum succiniciproducens, read-out: Minimal Inhibitory Concentration 50% (MIC50)): 32 µg/mL (≈ 42.8 µM); Minimal Inhibitory Concentration Range (Bacteroides gracilis): 0.25 to 2 µg/mL; MIC90 (Bacteroides gracilis; Campylobacter gracilis, read-out: Minimal Inhibitory Concentration 90% (MIC90)): 1 µg/mL (≈ 1.34 µM); MIC50 (Bacteroides gracilis; Campylobacter gracilis, read-out: Minimal Inhibitory Concentration 50% (MIC50)): 1 µg/mL (≈ 1.34 µM); Minimal Inhibitory Concentration Range (Bacteroides tectum): 0.125 µg/mL; MIC90 (Bacteroides tectum; Bacteroides pyogenes, read-out: Minimal Inhibitory Concentration 90% (MIC90)): 0.125 µg/mL (≈ 0.167 µM); MIC50 (Bacteroides tectum; Bacteroides pyogenes, read-out: Minimal Inhibitory Concentration 50% (MIC50)): 0.125 µg/mL (≈ 0.167 µM); Minimal Inhibitory Concentration Range (Bacteroides ureolyticus): 0.125 to 4 µg/mL; MIC90 (Bacteroides ureolyticus; Campylobacter ureolyticus, read-out: Minimal Inhibitory Concentration 90% (MIC90)): 2 µg/mL (≈ 2.67 µM); MIC50 (Bacteroides ureolyticus; Campylobacter ureolyticus, read-out: Minimal Inhibitory Concentration 50% (MIC50)): 0.5 µg/mL (≈ 0.668 µM); Minimal Inhibitory Concentration Range (Bilophila wadsworthia): 4 to 32 µg/mL; MIC90 (Bilophila wadsworthia; Bilophila wadsworthia, read-out: Minimal Inhibitory Concentration 90% (MIC90)): 32 µg/mL (≈ 42.8 µM); MIC50 (Bilophila wadsworthia; Bilophila wadsworthia, read-out: Minimal Inhibitory Concentration 50% (MIC50)): 16 µg/mL (≈ 21.4 µM); MIC90 [4, 16]: > 32 µg/mL; MIC50 [4, 17]: 4 µg/mL (≈ 5.35 µM); MIC50 (Clostridium dfficile; [17]): 0.5 µg/mL (≈ 0.668 µM); MIC90 (Clostridium dfficile; read-out: Minimal Inhibitory Concentration 90% (MIC90), 14 isolates): > 32 µg/mL; MIC90 (Clostridium inocuum; [16]): > 32 µg/mL; MIC50 (Clostridium inocuum; [17]): > 32 µg/mL; MIC50 (Clostridium ramosum; [17]): 0.5 µg/mL (≈ 0.668 µM); MIC90 (Clostridium ramosum; [16]): > 32 µg/mL; MIC50 ([5]; GROUP1, read-out: Minimal Inhibitory Concentration 50% (MIC50)): 8 µg/mL (≈ 10.7 µM); MIC90 ([5]; GROUP1, read-out: Minimal Inhibitory Concentration 90% (MIC90)): 32 µg/mL (≈ 42.8 µM); MIC50 [6, 17]: > 32 µg/mL; MIC90 [6, 16]: > 32 µg/mL; MIC50 (Fusobacterium russii; [17]): 4 µg/mL (≈ 5.35 µM); MIC90 (Fusobacterium russii; [16]): > 32 µg/mL; MIC50 (Fusobacterium varium; [17]): > 32 µg/mL; MIC90 (Fusobacterium varium; [16]): > 32 µg/mL; MIC50 [7, 17]: 2 µg/mL (≈ 2.67 µM); MIC90 [7, 16]: > 32 µg/mL; MIC50 [8, 17]: 2 µg/mL (≈ 2.67 µM); MIC90 [8, 16]: > 32 µg/mL; Minimal Inhibitory Concentration Range [9]: 0.6 µg/mL; MIC50 ([9]; Parvimonas micra, read-out: Minimal Inhibitory Concentration 50% (MIC50)): 0.5 µg/mL (≈ 0.668 µM); MIC90 ([9]; Parvimonas micra, read-out: Minimal Inhibitory Concentration 90% (MIC90)): 0.5 µg/mL (≈ 0.668 µM); MIC50 [10]: > 32 µg/mL; MIC50 [11, 17]: 0.06 µg/mL (≈ 0.0802 µM); MIC90 [11, 16]: > 32 µg/mL; Minimal Inhibitory Concentration Range (Porphyromonas canoris): 0.06 to 0.125 µg/mL; MIC50 (Porphyromonas canoris; Porphyromonas canoris, read-out: Minimal Inhibitory Concentration 50% (MIC50)): 0.06 µg/mL (≈ 0.0802 µM); MIC90 (Porphyromonas canoris; Porphyromonas canoris, read-out: Minimal Inhibitory Concentration 90% (MIC90)): 0.125 µg/mL (≈ 0.167 µM); Minimal Inhibitory Concentration Range (Porphyromonas gingivalis): 0.06 to 0.125 µg/mL; MIC50 (Porphyromonas gingivalis; Porphyromonas gingivalis, read-out: Minimal Inhibitory Concentration 50% (MIC50)): 0.06 µg/mL (≈ 0.0802 µM); MIC90 (Porphyromonas gingivalis; Porphyromonas gingivalis, read-out: Minimal Inhibitory Concentration 90% (MIC90)): 0.125 µg/mL (≈ 0.167 µM); Minimal Inhibitory Concentration Range (Porphyromonas macaccae): 0.06 to 0.125 µg/mL; MIC50 (Porphyromonas macaccae; [18]): 0.125 µg/mL (≈ 0.167 µM); MIC90 (Porphyromonas macaccae; [19]): 0.125 µg/mL (≈ 0.167 µM); Minimal Inhibitory Concentration Range (Porphyromonas spp.): 0.06 to 0.125 µg/mL; MIC50 (Porphyromonas spp.; [18]): 0.06 µg/mL (≈ 0.0802 µM); MIC90 (Porphyromonas spp.; [19]): 0.125 µg/mL (≈ 0.167 µM); MIC90 (Prevotella bivia; [16]): 0.25 µg/mL (≈ 0.334 µM); MIC50 (Prevotella bivia; [17]): 0.125 µg/mL (≈ 0.167 µM); Minimal Inhibitory Concentration Range [12]: 0.06 to 1 µg/mL; MIC90 ([12]; Prevotella, read-out: Minimal Inhibitory Concentration 90% (MIC90)): 0.25 µg/mL (≈ 0.334 µM); MIC50 ([12]; Prevotella, read-out: Minimal Inhibitory Concentration 50% (MIC50)): 0.125 µg/mL (≈ 0.167 µM); Minimal Inhibitory Concentration Range [13]: 0.06 to 0.125 µg/mL; MIC90 ([13]; Prevotella heparinolytica, read-out: Minimal Inhibitory Concentration 90% (MIC90)): 0.125 µg/mL (≈ 0.167 µM); MIC50 ([13]; Prevotella heparinolytica, read-out: Minimal Inhibitory Concentration 50% (MIC50)): 0.125 µg/mL (≈ 0.167 µM); MIC90 (Prevotella intermedia; [16]): 0.125 µg/mL (≈ 0.167 µM); MIC50 (Prevotella intermedia; [17]): ≤ 0.015 µg/mL; Minimal Inhibitory Concentration Range [14]: 0.06 to 4 µg/mL; MIC90 ([14]; Prevotella melaninogenica, read-out: Minimal Inhibitory Concentration 90% (MIC90)): 1 µg/mL (≈ 1.34 µM); MIC50 ([14]; Prevotella melaninogenica, read-out: Minimal Inhibitory Concentration 50% (MIC50)): 0.125 µg/mL (≈ 0.167 µM); Minimal Inhibitory Concentration Range [15]: 0.03 to 2 µg/mL; MIC50 ([15]; Prevotella denticola, read-out: Minimal Inhibitory Concentration 50% (MIC50)): 0.06 µg/mL (≈ 0.0802 µM); MIC90 (Veillonella spp.; [16]): > 32 µg/mL; MIC50 (Veillonella spp.; [17]): 16 µg/mL (≈ 21.4 µM)
